Source: patent US20230406851A1, “IMIDAZOPYRIDINE COMPOUNDS AND USES THEREOF” (priority 2022, published 2023)

What was measured:
[1] = tested on: rat FCA 96 hr paw model of inflammatory pain (heat hyperalgesia); assay: Heat hyperalgesia (Plantar Test) in rat FCA 96 hr paw model of inflammatory pain; type: in vivo; conditions: oral dosing 0.3-1-3-10-20 μmol/kg, 96 h after FCA
Experimental: (§1) One of the compounds of the present invention was evaluated in an in vivo model of inflammatory pain.
(§2) Male Sprague-Dawley rats (Charles River, St-Constant, Qc, CAN) weighing 200-225 g were utilized for the animal experiment studies. The animals were group-housed in polycarbonate, ventilated cages (filter top) in a controlled environment room (12-h light/dark cycle, 20.5-23.5° C., relative humidity: 40-70%) with food (14% Protein Rodent Maintenance Diet, Harlan Teklad, Madisson, WI, USA) and water ad libidum.
(§3) Inflammation was induced by injection of a single 40 μl Freund's complete adjuvant (FCA) intra-plantar injection into the rat's left hindpaw. All experiments were conducted 96 h after FCA administration. […]
Heat hyperalgesia (Plantar Test) was assessed using a Paw Thermal Stimulator to apply a controlled heat to the plantar surface of the affected paw. […] The heat source and timer were then turned on simultaneously; when the animal withdrew the hind paw the number of seconds was recorded. […]
(§4) Satellite animals were used to monitor the free plasma concentration of example 15 at the doses and time points used in the nociceptive tests. Free plasma EC50 values in behavioral studies were determined from 4-point concentration-response curves using non-linear regression and a sigmoidal variable slope logistic model (Prism 4.03, GraphPad Software Inc., USA).

[2] = tested on: rat FCA 96 hr paw model of inflammatory pain (mechanical hyperalgesia); assay: Mechanical hyperalgesia (Ugo Basile analgesy meter) in rat FCA 96 hr paw model of inflammatory pain; type: in vivo; conditions: oral dosing 0.3-1-3-10-20 μmol/kg, 96 h after FCA
Experimental: as §1, §2, §3
Mechanical hyperalgesia was assessed using the Ugo Basile analgesy meter (Ugo Basile, Comerio, Italy). […] The pressure required to elicit paw withdrawal was determined. […] Paw withdrawal thresholds were calculated as the mean of the two values. […]
as §4

In the case of `CNC(=O)c1cc(F)c(-c2nc3cc(C)ccn3c2C[C@H]2CN(C(=O)OC)CCO2)c(F)c1` [Example 15, (S)-methyl-2-((2-(2,6-difluoro-4-(methylcarbamoyl)phenyl)-7-methylimidazo[1,2-a]pyridin-3-yl)methyl)morpholine-4-carboxylate], the “reversal of heat hyperalgesia” value [1] is reported as “free plasma concentration dependent reversal”, the EC50 ([1]; free plasma concentration, read-out: potency (EC50 free plasma concentration) in reversing heat hyperalgesia) is reported as 18 nM and the “reversal of mechanical hyperalgesia” value [2] is reported as “free plasma concentration dependent reversal”. It also gave an EC50 ([2]; free plasma concentration, read-out: potency (EC50 free plasma concentration) in reversing mechanical hyperalgesia) of 87 nM.
